Target: T1, AMPK beta 1 (Homo sapiens, UniProt Q13131+Q9Y478)
T1 construct: in-cell-ELISA for phospho-ACC (Acetyl-CoA carboxylase 1) in HepG2 cells (liver); endogenous in cells; host or cells: HepG2 (assignment to the beta 1 column inferred)
Assay: in-cell-ELISA for phospho-ACC: activation of AMPK, beta 1 (HepG2 cells / C2C12 myotubes)
Type: cell-based
Settings: 2 h, percentage activation over vehicle control; for activation at 10 µM / activation at 3 µM / activation at 1 µM: read-out: Percentage activation of beta 1 at given concentration
Experimental: Activation of AMPK by various compounds were measured using in-cell-ELISA for phospho-ACC (Acetyl-CoA carboxylase 1) in HepG2 cells (liver) and fully differentiated myotubes (C2C12 cells) grown in 96 well plate. Cells were treated with 1 μM, 3 μM or 10 μM of the molecule (Example) for 2 h in serum free DMEM media. After methanol fixation, cells were blocked with BSA followed by addition of anti-phospho ACC antibody (Cell Signaling) and HRP conjugated secondary antibody. Absorbance values taken at 450 nm were normalized with total DNA (Hoechest stain). Results were expressed as percentage activation over vehicle control.
Percentage activation at compound (Example) concentration of 1, 3 or 10 μM for compounds according to the invention are shown in the following table. The number of the compound corresponds to the number of the Example (Ex) in the experimental section.

T1 sequence (Q9Y478 2-270 limits assumed): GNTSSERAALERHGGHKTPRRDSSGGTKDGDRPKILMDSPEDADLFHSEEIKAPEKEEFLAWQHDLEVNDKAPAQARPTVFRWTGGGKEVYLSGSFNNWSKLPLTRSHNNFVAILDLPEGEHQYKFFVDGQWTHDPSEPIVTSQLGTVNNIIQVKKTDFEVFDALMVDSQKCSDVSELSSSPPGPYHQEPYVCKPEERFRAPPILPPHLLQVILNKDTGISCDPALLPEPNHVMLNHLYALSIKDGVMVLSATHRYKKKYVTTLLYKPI
T1 sequence (Q13131 whole entry): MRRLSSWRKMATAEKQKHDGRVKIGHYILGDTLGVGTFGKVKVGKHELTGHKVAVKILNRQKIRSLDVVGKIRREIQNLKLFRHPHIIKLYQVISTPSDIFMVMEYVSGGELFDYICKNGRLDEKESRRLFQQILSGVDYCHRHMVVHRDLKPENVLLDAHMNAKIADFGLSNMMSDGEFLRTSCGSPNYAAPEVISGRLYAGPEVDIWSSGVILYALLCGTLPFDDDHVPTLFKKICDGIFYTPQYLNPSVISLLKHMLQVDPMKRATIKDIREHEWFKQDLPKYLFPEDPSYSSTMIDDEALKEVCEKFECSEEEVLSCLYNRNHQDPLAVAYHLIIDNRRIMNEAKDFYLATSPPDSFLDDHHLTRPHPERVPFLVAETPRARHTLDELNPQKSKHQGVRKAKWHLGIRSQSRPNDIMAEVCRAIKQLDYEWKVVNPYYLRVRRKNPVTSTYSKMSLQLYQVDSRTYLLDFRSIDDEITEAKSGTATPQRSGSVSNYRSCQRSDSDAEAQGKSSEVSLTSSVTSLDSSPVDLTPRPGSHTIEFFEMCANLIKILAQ
T1 sequence (P54619 whole entry partner): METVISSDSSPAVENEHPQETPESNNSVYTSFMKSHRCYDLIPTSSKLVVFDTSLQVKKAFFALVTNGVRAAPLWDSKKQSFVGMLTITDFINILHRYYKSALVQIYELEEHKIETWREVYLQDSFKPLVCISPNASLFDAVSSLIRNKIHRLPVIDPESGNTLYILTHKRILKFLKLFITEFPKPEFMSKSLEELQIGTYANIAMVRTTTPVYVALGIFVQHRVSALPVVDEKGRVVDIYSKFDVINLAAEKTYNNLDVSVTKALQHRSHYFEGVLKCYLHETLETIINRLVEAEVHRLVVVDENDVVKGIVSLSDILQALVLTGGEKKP

| Structure (SMILES) | activation at 10 µM (10 μM) | further results |
| --- | --- | --- |
| Cc1ccc(C2CC23C(=O)Nc2cc(Cl)c(-c4ccc5cc[nH]c5c4)cc23)cc1C(=O)O (centres unmarked) [Example 93] | 51% | – |
| Cc1ccc(C2CC23C(=O)Nc2cc(Cl)c(-c4ccc(-c5ccc(-n6cncn6)cc5)cc4)cc23)cc1C(=O)O (centres unmarked) [Example 117] | – | Percentage activation of beta 1 at given concentration (1 μM): 165% at 1 μM |
| Cn1ccc2cc(-c3cc4c(cc3F)NC(=O)C43CC3c3cccc(CC(=O)O)c3)ccc21 (centres unmarked) [Example 56] | 79% | – |
| CCN1C(=O)C2(CC2c2ccc(C)c(CC(=O)O)c2)c2cc(-c3ccc(-c4ccncc4)cc3)c(Cl)cc21 (centres unmarked) [Example 113] | 51% | – |
| Cc1ccc(C2CC23C(=O)Nc2cc(Cl)c(S(=O)(=O)Nc4ccccc4O)cc23)cc1C(=O)O (centres unmarked) [Example 92] | 16% | – |
| Cc1ccc(C2CC23C(=O)Nc2cc(Cl)c(C#Cc4ccncc4)cc23)cc1C(=O)O (centres unmarked) [Example 79] | 112% | – |
| Cc1ccc(C2CC23C(=O)Nc2cc(Cl)c(-c4ccc(-c5cnn(C)c5)cc4)cc23)cc1C(=O)O (centres unmarked) [Example 85] | 127% | – |
| Cc1ccc(C2CC23C(=O)N(C)c2cc(F)c(-c4ccc(-c5ccccc5O)cc4)cc23)cc1C(=O)O (centres unmarked) [Example 15] | 176% | – |
| Cc1ccc(C2CC23C(=O)Nc2cc(Cl)c(-c4ccc(-c5ccc(-n6cncn6)cc5)cc4)cc23)cc1C(=O)O (centres unmarked) [Example 119] | – | Percentage activation of beta 1 at given concentration (1 μM): 99% at 1 μM |
| Cc1ccc(C2CC23C(=O)Nc2cc(Cl)c(-c4ccc(-c5ccccc5O)cn4)cc23)cc1C(=O)O (centres unmarked) [Example 8] | 25% | – |
| CC(C)c1ccc(C2CC23C(=O)Nc2cc(Cl)c(-c4ccc(N5CCC[C@@H]5CO)cc4)cc23)cc1C(=O)O (some centres unmarked) [Example 50] | – | activation at 3 µM: 68% |
| Cn1cc(C2CC23C(=O)Nc2cc(Cl)c(-c4ccc(-c5ccccc5O)cc4)cc23)cc1C(=O)O (centres unmarked) [Example 43] | – | activation at 3 µM: 43% |
| O=C(O)c1cccc(C2CC23C(=O)Nc2cc(F)c(-c4ccc(-c5ccccc5O)cc4)cc23)c1 (centres unmarked) [Example 2] | – | activation at 3 µM: 60% |
| COc1ccc(C2CC23C(=O)Nc2cc(Cl)c(-c4ccc(-c5ccncc5)cc4)cc23)cc1CC(=O)O (centres unmarked) [Example 70] | – | activation at 3 µM: 59% |
| Cc1ccc(C2CC23C(=O)Nc2cc(Cl)c(-c4ccc(-c5ccc(-n6cnnn6)cc5)cc4)cc23)cc1C(=O)O (centres unmarked) [Example 140] | – | activation at 3 µM: 21% |
| Cn1cc(C2CC23C(=O)Nc2cc(Cl)c(-c4ccc(-c5ccc(-n6cccn6)cc5)cc4)cc23)cc1C(=O)O (centres unmarked) [Example 120] | 48% | – |
| Cn1cc(C2CC23C(=O)Nc2cc(Cl)c(-c4ccc(-c5ccc(-n6cncn6)cc5)cc4)cc23)cc1C(=O)O (centres unmarked) [Example 126] | – | activation at 1 µM (1 μM): 38% |
| Cc1ccc(C2CC23C(=O)Nc2cc(Cl)c(-c4ccc(-n5cccn5)cc4)cc23)cc1C(=O)O (centres unmarked) [Example 166] | – | activation at 3 µM: 62% |
| CC(C)c1ccc(C2CC23C(=O)Nc2cc(Cl)c(-c4ccc(OCCO)cc4)cc23)cc1C(=O)O (centres unmarked) [Example 52] | 51% | – |
| COc1ccc(C2CC23C(=O)Nc2cc(F)c(-c4ccc(-c5ccc(-n6ccnn6)cc5)cc4)cc23)cc1CC(=O)O (centres unmarked) [Example 177] | – | activation at 1 µM (1 μM): 51% |
| Cc1ccc(C2CC23C(=O)Nc2c(F)cc(-c4ccc(-c5ccc(-n6cncn6)cc5)cc4)cc23)cc1C(=O)O (centres unmarked) [Example 155] | – | activation at 1 µM (1 μM): 28% |
| Cc1ccc(C2CC23C(=O)Nc2cc(F)c(-c4ccc(-c5ccccc5O)cc4)cc23)cc1C(=O)O (centres unmarked) [Example 4] | 83% | – |
| Cc1ccc(C2CC23C(=O)Nc2cc(Cl)c(-c4ccc(-c5ccccc5)cn4)cc23)cc1C(=O)O (centres unmarked) [Example 75] | 54% | – |
| O=C(O)Cc1cccc(C2CC23C(=O)Nc2cc(Cl)c(-c4ccc(-c5ccccc5O)cn4)cc23)c1 (centres unmarked) [Example 16] | – | Percentage activation of beta 1 at given concentration (10 μM): 23% at 10 μM |
| Cn1c(C(=O)O)ccc1C1CC12C(=O)Nc1cc(Cl)c(-c3ccc(-c4ccccc4O)cc3)cc12 (centres unmarked) [Example 42] | 42% | – |
| Cc1ccc(C2CC23C(=O)Nc2cc(F)c(-c4ccc(-c5ccccc5O)cc4)cc23)cc1CC(=O)O (centres unmarked) [Example 3] | 166% | – |
| COc1ccc(C2CC23C(=O)Nc2cc(F)c(-c4ccc(-c5ccccc5O)cc4)cc23)cc1CC(=O)O (centres unmarked) [Example 12] | 12% | – |
| Cc1ccc(C2CC23C(=O)N(CCO)c2cc(Cl)c(-c4ccc(-c5ccncc5)cc4)cc23)cc1C(=O)O (centres unmarked) [Example 105] | – | activation at 3 µM: 81% |
| Cc1ccc(C2CC23C(=O)Nc2cc(F)c(-c4ccc(-c5ccc6c(cnn6C)c5)cc4)cc23)cc1C(=O)O (centres unmarked) [Example 160] | – | activation at 1 µM (1 μM): 11% |
